This is an account of results in ChEMBL document CHEMBL1817623, “Sesterterpenes from the tropical sponge Coscinoderma sp” (J Nat Prod, 2011).

In brackets after ≈: the same amount, converted by molar mass.

One test relates to K562. As to the kind of experiment: Cytotoxicity against human K562 cells. The class given is functional. The following applies: read-out: LC50 (the source's name).
For a further test, the target named is T1, Sortase A (Staphylococcus aureus, UniProt Q9S446).
T1 sequence (Q9S446 whole entry): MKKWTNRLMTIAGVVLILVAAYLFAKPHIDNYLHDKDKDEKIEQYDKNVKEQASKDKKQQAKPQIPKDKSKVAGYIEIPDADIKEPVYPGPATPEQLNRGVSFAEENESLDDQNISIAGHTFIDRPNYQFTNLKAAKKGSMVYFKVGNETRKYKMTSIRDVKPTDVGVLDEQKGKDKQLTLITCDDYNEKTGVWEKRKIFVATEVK
Kind of test: Inhibition of recombinant Staphylococcus aureus ATCC 6538p sortase lacking the N-terminal membrane anchor domain expressed in Escherichia coli cells TOP10 using Dabcyl-QALPETGEE-Edans substrate measured after 1 hr by fluorescence S13 spectrophotometry.

The target of the next test is Isocitrate lyase (Candida albicans, UniProt Q9P8Q7). As to the kind of experiment: Inhibition of Candida albicans isocitrate lyase.
Test [1] addresses Sodium/potassium-transporting ATPase. As to the kind of experiment: Inhibition of human Na(+)/K(+) ATPase assessed as reduction in ouabain-sensitive and K(+)-dependent cleavage of fluorescent pseudosubstrate 3-O-methylfluorescein phosphate by fluorometric method. The class given is protein-complex assay.
The test system of another test is Staphylococcus aureus. Kind of test: Antimicrobial activity against Staphylococcus aureus ATCC 6538p. It counts as functional.
Another test has as its system Bacillus subtilis. As to the kind of experiment: Antimicrobial activity against Bacillus subtilis ATCC 6633. It counts as functional.
A further test concerns Micrococcus luteus. As to the kind of experiment: Antimicrobial activity against Micrococcus luteus IFO 12708. The class given is functional.
In the next test the test system is Salmonella typhimurium. Kind of test: Antimicrobial activity against Salmonella Typhimurium ATCC 14028. The class given is functional, Salmonella enterica subsp. enterica serovar Typhimurium. As to conditions: Salmonella enterica.
The subject of the next test is Proteus vulgaris. As to the kind of experiment: Antimicrobial activity against Proteus vulgaris ATCC 3851. The class given is functional.
A further test relates to Escherichia coli. Kind of test: Antimicrobial activity against Escherichia coli ATCC 35270. The class given is functional.
Another test relates to Aspergillus fumigatus. Kind of test: Antimicrobial activity against Aspergillus fumigatus HIC 6094. The class given is functional.
Another test has as its system Trichophyton rubrum. As to the kind of experiment: Antimicrobial activity against Trichophyton rubrum IFO 9185. The class given is functional.
Test [2] has as its system Trichophyton mentagrophytes. Kind of test: Antimicrobial activity against Trichophyton mentagrophytes IFO 40996. It counts as functional.
For the next test, the system named is Candida albicans. As to the kind of experiment: Antimicrobial activity against Candida albicans ATCC 10231. It counts as functional.

Chain of Isocitrate lyase (Q9P8Q7 whole entry): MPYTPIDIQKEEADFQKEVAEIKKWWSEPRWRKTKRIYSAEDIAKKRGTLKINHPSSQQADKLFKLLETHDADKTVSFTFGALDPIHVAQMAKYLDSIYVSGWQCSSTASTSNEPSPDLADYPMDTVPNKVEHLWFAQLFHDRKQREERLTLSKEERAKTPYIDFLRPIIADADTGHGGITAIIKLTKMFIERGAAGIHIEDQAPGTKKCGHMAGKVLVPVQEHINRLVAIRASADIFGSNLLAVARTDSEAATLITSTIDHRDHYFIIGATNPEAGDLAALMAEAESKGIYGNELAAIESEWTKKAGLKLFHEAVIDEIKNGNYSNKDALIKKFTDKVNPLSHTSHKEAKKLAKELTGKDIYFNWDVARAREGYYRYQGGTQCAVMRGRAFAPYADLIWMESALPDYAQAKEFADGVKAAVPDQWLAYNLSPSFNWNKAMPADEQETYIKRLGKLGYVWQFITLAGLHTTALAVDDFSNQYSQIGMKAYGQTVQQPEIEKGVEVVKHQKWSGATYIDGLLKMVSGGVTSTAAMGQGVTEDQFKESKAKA

`CO[C@@H]1O[C@H](OC)[C@](O)(CC[C@H]2/C(=C/OS(=O)(=O)[O-])CC[C@H]3[C@]2(C)CC[C@H]2C(C)(C)CCC[C@]32C)[C@H]1O.[Na+]`: in the test on K562, the CC50 was 15 µM. Also, the IC50 on Sortase A is more than 200 µM; against Isocitrate lyase, 75 µM; in test [1], 6 µM. In addition, the minimum inhibitory concentration (MIC) against Staphylococcus aureus, with Bacillus subtilis, with Micrococcus luteus, with Salmonella typhimurium, against Proteus vulgaris and in the test with Escherichia coli was more than 100 µg/mL each time. The MIC (against Aspergillus fumigatus; against Trichophyton rubrum; in test [2]; in the test on Candida albicans) was more than 100 µg/mL each time.

`CC1=CC[C@H]2C(C)(C)CCC[C@]2(C)[C@H]1C[C@@H](OS(=O)(=O)[O-])[C@H](C)CCC/C(C)=C\Cc1cc(O)ccc1O.[Na+]`: the CC50 in the test on K562 was more than 200 µM. The concentration for half-maximal inhibition (IC50) on Sortase A came out at 100 µM; against Isocitrate lyase it was 52 µM; in test [1] it was 5 µM. Moreover, the minimum inhibitory concentration (MIC) in the test with Staphylococcus aureus, with Bacillus subtilis, against Micrococcus luteus, with Salmonella typhimurium, in the test with Proteus vulgaris and against Escherichia coli was more than 100 µg/mL in each case. For the same compound, the MIC (with Aspergillus fumigatus; against Trichophyton rubrum; in test [2]; in the test on Candida albicans) was more than 100 µg/mL in each case.

For the compound `CC1(C)CCC[C@]2(C)[C@H]3CC/C(=C\OS(=O)(=O)[O-])[C@H](CCC4=CC(=O)O[C@@H]4O)[C@@]3(C)CC[C@@H]12.[Na+]`, the CC50 in the test with K562 amounted to 59 µM. Besides, the IC50 was more than 200 µM on Sortase A and 5 µM in test [1]. In addition, the MIC in the test with Staphylococcus aureus, against Bacillus subtilis, with Micrococcus luteus, against Salmonella typhimurium, against Proteus vulgaris and in the test with Escherichia coli was more than 100 µg/mL throughout. Besides, the MIC (in the test with Aspergillus fumigatus; with Trichophyton rubrum; in test [2]; in the test with Candida albicans) was more than 100 µg/mL each time.

For `CC1(C)CCC[C@]2(C)[C@H]3CC/C(=C\OS(=O)(=O)[O-])[C@H](CCC4=CC(=O)OC4)[C@@]3(C)CC[C@@H]12.[Na+]`, the CC50 in the test with K562 came to 56 µM. For the same compound, the values for the IC50 (on Sortase A; against Isocitrate lyase; in test [1]) were more than 200 µM, 150 µM and 19 µM, respectively. For the same compound, the MIC in the test on Staphylococcus aureus, against Bacillus subtilis, against Micrococcus luteus, against Salmonella typhimurium, against Proteus vulgaris and in the test with Escherichia coli was more than 100 µg/mL each time. The MIC (in the test on Aspergillus fumigatus; in the test with Trichophyton rubrum; in test [2]; in the test on Candida albicans) was more than 100 µg/mL in each case.

`CO[C@@H]1C=C(CC[C@H]2/C(=C/OS(=O)(=O)[O-])CC[C@H]3[C@]2(C)CC[C@H]2C(C)(C)CCC[C@]32C)C(=O)O1.[Na+]`: in the test with K562, the CC50 came out at 16 µM. Also, the IC50 is more than 200 µM at Sortase A, 64 µM against Isocitrate lyase and 6 µM in test [1]. Further, the MIC against Staphylococcus aureus, in the test on Bacillus subtilis, against Micrococcus luteus, in the test with Salmonella typhimurium, in the test with Proteus vulgaris and against Escherichia coli was more than 100 µg/mL each time. Besides, the MIC (in the test with Aspergillus fumigatus; against Trichophyton rubrum; in test [2]; in the test with Candida albicans) was more than 100 µg/mL in each case.

In the case of `CO[C@H]1C=C(CC[C@H]2/C(=C/OS(=O)(=O)[O-])CC[C@H]3[C@]2(C)CC[C@H]2C(C)(C)CCC[C@]32C)C(=O)O1.[Na+]`, in the test on K562, the CC50 was determined as 45 µM. Moreover, the IC50 was more than 200 µM on Sortase A, 165 µM at Isocitrate lyase and 17 µM in test [1]. Besides, the MIC in the test with Staphylococcus aureus, in the test with Bacillus subtilis, against Micrococcus luteus, against Salmonella typhimurium, in the test with Proteus vulgaris and with Escherichia coli was more than 100 µg/mL throughout. In addition, the MIC (against Aspergillus fumigatus; in the test on Trichophyton rubrum; in test [2]; in the test on Candida albicans) was more than 100 µg/mL in each case.

In the case of `CO[C@H]1C=C(CC[C@H]2/C(=C/OS(=O)(=O)[O-])CC[C@H]3[C@]2(C)CC[C@H]2C(C)(C)CCC[C@]32C)[C@@H](OC)O1.[Na+]`, in the test with K562, the CC50 is 49 µM. The half-inhibitory concentration (IC50) at Sortase A is more than 200 µM; on Isocitrate lyase, 87 µM; in [1] it was 14 µM. The minimal inhibitory concentration (MIC) in the test on Staphylococcus aureus, in the test with Bacillus subtilis, with Micrococcus luteus, in the test on Salmonella typhimurium, against Proteus vulgaris and against Escherichia coli was more than 100 µg/mL each time. Moreover, the minimum inhibitory concentration (MIC) (against Aspergillus fumigatus; in the test with Trichophyton rubrum; in test [2]; against Candida albicans) was more than 100 µg/mL each time.

Turning to `CC1(C)CCC[C@]2(C)[C@H]3CC/C(=C\OS(=O)(=O)[O-])[C@H](CCC4=CCNC4=O)[C@@]3(C)CC[C@@H]12.[Na+]`, the CC50 with K562 came to 22 µM. Also, the IC50 at Sortase A was more than 200 µM; at Isocitrate lyase, 62 µM; in [1], 18 µM. In addition, the MIC in the test with Staphylococcus aureus, in the test on Bacillus subtilis, against Micrococcus luteus, against Salmonella typhimurium, against Proteus vulgaris and against Escherichia coli was more than 100 µg/mL throughout. In addition, the MIC (against Aspergillus fumigatus; in the test with Trichophyton rubrum; in [2]; with Candida albicans) was more than 100 µg/mL in each case.

As to `O=C(O)CC[N+](=O)[O-]`, on Isocitrate lyase, the IC50 came out at 9 µM.

Regarding `CC1=CC[C@H]2C(C)(C)CCC[C@]2(C)[C@H]1C/C=C(\C)CCC/C(C)=C/Cc1cc(O)ccc1O`, the CC50 with K562 was 8 µM. Also, the results for the IC50 (at Sortase A; at Isocitrate lyase; in test [1]) were more than 200 µM, more than 200 µM and 117 µM, respectively. In addition, the minimal inhibitory concentration (MIC) in the test on Staphylococcus aureus, against Bacillus subtilis, against Micrococcus luteus, against Salmonella typhimurium, against Proteus vulgaris and against Escherichia coli was more than 100 µg/mL throughout. Moreover, the MIC (against Aspergillus fumigatus; in the test with Trichophyton rubrum; in test [2]; in the test with Candida albicans) was more than 100 µg/mL throughout.

`C=C1CC[C@H]2C(C)(C)CCC[C@]2(C)[C@H]1C[C@@H](OS(=O)(=O)[O-])[C@H](C)CCC/C(C)=C/Cc1cc(O)ccc1O.[Na+]`: the CC50 in the test on K562 is more than 200 µM. Further, the IC50 at Sortase A is 98 µM; against Isocitrate lyase it was 45 µM; in test [1], 4 µM. In addition, the MIC (against Escherichia coli; with Aspergillus fumigatus; in the test on Trichophyton rubrum; in [2]; against Candida albicans) was more than 100 µg/mL in each case.

For the compound `C[C@@H]1[C@H](O)[C@@H](C)/C=C/C=C/C=C/C=C/C=C/C=C/C=C/[C@H](O[C@@H]2O[C@H](C)[C@@H](O)[C@H](N)[C@@H]2O)C[C@@H]2O[C@](O)(C[C@@H](O)C[C@@H](O)[C@H](O)CC[C@@H](O)C[C@@H](O)CC(=O)O[C@H]1C)C[C@H](O)[C@H]2C(=O)O` [AMPHOTERICIN B], the MIC is 3.13 µg/mL (≈ 3.39 µM) with Aspergillus fumigatus, 3.13 µg/mL (≈ 3.39 µM) with Trichophyton rubrum, 3.13 µg/mL (≈ 3.39 µM) in test [2] and 0.78 µg/mL (≈ 0.844 µM) in the test on Candida albicans.

Turning to `CC1(C)S[C@@H]2[C@H](NC(=O)[C@H](N)c3ccccc3)C(=O)N2[C@H]1C(=O)O` [AMPICILLIN], the MIC in the test with Staphylococcus aureus amounted to 1.56 µg/mL (≈ 4.46 µM); against Bacillus subtilis it was 0.39 µg/mL (≈ 1.12 µM); against Micrococcus luteus it was 0.39 µg/mL (≈ 1.12 µM); against Salmonella typhimurium it was 0.39 µg/mL (≈ 1.12 µM); with Proteus vulgaris it was 0.39 µg/mL (≈ 1.12 µM); with Escherichia coli, 6.25 µg/mL (≈ 17.9 µM).

In the case of `CC1=CC[C@H]2C(C)(C)CCC[C@]2(C)[C@H]1C/C=C(/C)CCC/C(C)=C/Cc1cc(O)ccc1O` [COSCINOQUINOL], the CC50 in the test on K562 turned out to be 8 µM. Further, the IC50 is more than 200 µM on Sortase A, more than 200 µM against Isocitrate lyase and 44 µM in [1]. Besides, the MIC was more than 100 µg/mL with Staphylococcus aureus; 3.25 µg/mL (≈ 7.21 µM) in the test with Bacillus subtilis; 25 µg/mL (≈ 55.5 µM) against Micrococcus luteus; 25 µg/mL (≈ 55.5 µM) against Salmonella typhimurium; 6.25 µg/mL (≈ 13.9 µM) in the test with Proteus vulgaris; more than 100 µg/mL against Escherichia coli. Moreover, the MIC (in the test on Aspergillus fumigatus; against Trichophyton rubrum; in [2]; against Candida albicans) was more than 100 µg/mL in each case.

With `COc1cccc2c1C(=O)c1c(O)c3c(c(O)c1C2=O)C[C@@](O)(C(=O)CO)C[C@@H]3O[C@H]1C[C@H](N)[C@H](O)[C@H](C)O1` [DOXORUBICIN], the CC50 in the test with K562 came out at 13 µM.

For `CC1=CC[C@H]2C(C)(C)CCC[C@]2(C)[C@H]1C[C@@H](OS(=O)(=O)[O-])[C@H](C)CCC/C(C)=C/Cc1cc(O)ccc1O.[Na+]` [HALISULFATE 1], in the test with K562, the CC50 is more than 200 µM. The values for the IC50 (at Sortase A; at Isocitrate lyase; in test [1]) were 36 µM, 19 µM and 3 µM, respectively. In addition, the MIC in the test on Staphylococcus aureus is 50 µg/mL; with Bacillus subtilis, 3.13 µg/mL; with Escherichia coli it was more than 100 µg/mL; in the test with Aspergillus fumigatus, more than 100 µg/mL; in the test with Trichophyton rubrum, more than 100 µg/mL; in test [2], more than 100 µg/mL. The same compound displayed an MIC in the test with Candida albicans of more than 100 µg/mL.

For orientation: IC50 means the concentration that gives 50% inhibition. The MIC is the least concentration at which growth counts as inhibited. The low end stands for a more susceptible organism, the high end for a less susceptible organism.
